Molecular target: T1, protease activated receptor subtype 1, PAR1 (Homo sapiens, UniProt P25116)
T1 construct: A431 cells endogenously express both PAR1 and β2AR; endogenous in cells; host or cells: A431 (human epidermoid carcinoma)
T1 sequence (P25116 22-425): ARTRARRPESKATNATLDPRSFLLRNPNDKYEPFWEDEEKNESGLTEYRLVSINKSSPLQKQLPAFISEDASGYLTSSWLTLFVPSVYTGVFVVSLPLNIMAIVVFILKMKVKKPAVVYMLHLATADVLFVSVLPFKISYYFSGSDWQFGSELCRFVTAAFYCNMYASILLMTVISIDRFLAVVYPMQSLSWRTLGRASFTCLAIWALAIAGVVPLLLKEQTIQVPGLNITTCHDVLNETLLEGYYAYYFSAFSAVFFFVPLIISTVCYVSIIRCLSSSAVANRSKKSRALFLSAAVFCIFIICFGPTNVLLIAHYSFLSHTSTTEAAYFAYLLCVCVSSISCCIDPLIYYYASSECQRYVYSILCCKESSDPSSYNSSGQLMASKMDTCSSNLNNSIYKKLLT
Test: RWG biosensor DMR assay, SFLLR-amide stimulation of A431 cells
Format: cell-based
Settings: 1 micromolar
Source text: Corning® Epic® wavelength interrogation system was used.
It is widely believed that GPCR signaling proceeds through a series of highly regulated spatial and temporal events besides the production and regulations of second messengers such as Ca^2+ and cAMP. […] The label-free optical biosensors enable the measurement of an integrated cellular response relating to ligand-induced dynamic mass redistribution in cells within the detection zone of the biosensor, offering a novel readout for receptor biology and ligand pharmacology.
FIG. 2 provide examples of RWG biosensor-based cell assays against two classes of G protein-coupled receptors. […] A431 cells endogenously express both PAR1 and β2AR. […] This is consistent with the known signaling pathways mediated through each receptor individually, i.e., PAR1 activation leads to a Gq pathway, while β2AR activation leads to a Gs pathway. […] In FIGS. 2b, 2c and 2d, the error bar at each time point was also included. One possible explanation is that distinct classes of GPCRs can mediate signaling through distinct routes (e.g., “channeling” or “tunneling”), and the cells can respond synergistically to co-stimulation with two agonists targeting two different receptors.

type of DMR signal induced: Gq-type DMR signal
Substance: SFLLR-amide

From patent US8759013B2, “Dual-target biosensor cell assays” (Corning Incorporated, priority 2008, dated 2014)
